Laboratory results from PubChem BioAssay AID248 (DTP/NCI, 2004).
Where “and” joins values, the source holds several entries; their conditions need not be identical. Equal values may be shown once. Inconclusive results and toxic doses are left out. No stated cut-off is given here; in the data, active means T/C of 150% or more; inactive means T/C below 125%.

Tested on: L1210 leukemia ip in BDF1 mice, survival T/C
Test: NCI In Vivo Anticancer Drug Screen. Data for tumor model L1210 Leukemia (intraperitoneal) in B6D2F1 (BDF1) mice
Details: endpoint: mean survival time, higher = longer survival
In short: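 Tumor cells were implanted, animals were treated, and survival was followed. The result divides the treated measurement by the vehicle-control measurement.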

[1] = dose: 100.0 mg/kg/injection, schedule: Q01DX009 (ip), vehicle: saline with Tween-80
[2] = dose: 200.0 mg/kg/injection, schedule: Q01DX009 (ip), vehicle: saline with Tween-80
[3] = dose: 100.0 mg/kg/injection, schedule: Q04DX002 (ip), vehicle: saline with Tween-80
[4] = dose: 200.0 mg/kg/injection, schedule: Q04DX002 (ip), vehicle: saline with Tween-80
[5] = dose: 400.0 mg/kg/injection, schedule: Q04DX002 (ip), vehicle: saline with Tween-80
[6] = dose: 100.0 mg/kg/injection, schedule: Q04DX003 (ip), vehicle: Klucel (hydroxypropylcellulose) (HPC)
[7] = dose: 200.0 mg/kg/injection, schedule: Q04DX003 (ip), vehicle: Klucel (hydroxypropylcellulose) (HPC)
[8] = dose: 25.0 mg/kg/injection, schedule: Q04DX002 (ip), vehicle: Klucel (hydroxypropylcellulose) (HPC)
[9] = dose: 50.0 mg/kg/injection, schedule: Q04DX002 (ip), vehicle: Klucel (hydroxypropylcellulose) (HPC)
[10] = dose: 100.0 mg/kg/injection, schedule: Q04DX002 (ip), vehicle: Klucel (hydroxypropylcellulose) (HPC)
[11] = dose: 100.0 mg/kg/injection, schedule: Q01DX001 (ip), vehicle: saline

Measured: T/C

CC(c1ccc(Br)cc1)N(C)C (stereo not given)
inactive: dose: 10.0 mg/kg/injection, schedule: Q01DX001 (ip), vehicle: saline 102 % of control | dose: 20.0 mg/kg/injection, schedule: Q01DX001 (ip), vehicle: saline 93 % of control | dose: 40.0 mg/kg/injection, schedule: Q01DX001 (ip), vehicle: saline 98 % of control | dose: 80.0 mg/kg/injection, schedule: Q01DX001 (ip), vehicle: saline 98 % of control

COc1ccc(NC(=O)CC(C)C(=O)O)cc1 (stereo not given)
inactive: [1] 102 % of control | [2] 90 % of control | dose: 400.0 mg/kg/injection, schedule: Q01DX009 (ip), vehicle: saline with Tween-80 104 % of control

CC(=O)NC(C)C1(O)CCCCC1 (stereo not given)
inactive: dose: 100.0 mg/kg/injection, schedule: Q01DX009 (ip), vehicle: saline 101 % of control | dose: 200.0 mg/kg/injection, schedule: Q01DX009 (ip), vehicle: saline 96 % of control | dose: 400.0 mg/kg/injection, schedule: Q01DX009 (ip), vehicle: saline 98 % of control

Cc1ccc(O)c(CCCC(=O)O)c1
inactive: dose: 100.0 mg/kg/injection, schedule: Q01DX009 (ip), vehicle: alcohol 100 % of control | dose: 200.0 mg/kg/injection, schedule: Q01DX009 (ip), vehicle: alcohol 101 % of control | dose: 400.0 mg/kg/injection, schedule: Q01DX009 (ip), vehicle: alcohol 98 % of control

BrCCCCOCBr
inactive: dose: 50.0 mg/kg/injection, schedule: Q01DX009 (ip), vehicle: saline with Tween-80 97 % of control | [1] 101 % of control | [2] 106 % of control

COC(=O)C1(C)CCCC2(C)C3CCC4(C)CC3(CCC12)OC4C (stereo not given)
inactive: [3] 95 % of control | [4] 100 % of control | [5] 89 % of control

Nc1nc2nnc(-c3ccccc3)c(-c3ccccc3)n2n1
inactive: dose: 100.0 mg/kg/injection, schedule: Q01DX001 (ip), vehicle: Klucel (hydroxypropylcellulose) (HPC) 93 % of control | [6] 96 % of control | dose: 200.0 mg/kg/injection, schedule: Q01DX001 (ip), vehicle: Klucel (hydroxypropylcellulose) (HPC) 93 % of control | [7] 101 % of control | dose: 400.0 mg/kg/injection, schedule: Q01DX001 (ip), vehicle: Klucel (hydroxypropylcellulose) (HPC) 92 % of control | dose: 400.0 mg/kg/injection, schedule: Q04DX003 (ip), vehicle: Klucel (hydroxypropylcellulose) (HPC) 91 % of control

CC(=O)C(C(C)=O)C(=O)c1ccccc1
inactive: dose: 222.0 mg/kg/injection, schedule: Q01DX Z (ip), vehicle: saline 100 % of control | dose: 333.0 mg/kg/injection, schedule: Q01DX Z (ip), vehicle: saline 90 % of control | dose: 500.0 mg/kg/injection, schedule: Q01DX Z (ip), vehicle: saline 103 % of control

N#Cc1cc2ccccc2n(O)c1=N
inactive: dose: 75.0 mg/kg/injection, schedule: Q04DX003 (ip), vehicle: saline 93 % of control | dose: 150.0 mg/kg/injection, schedule: Q04DX003 (ip), vehicle: saline 109 % of control | dose: 300.0 mg/kg/injection, schedule: Q04DX003 (ip), vehicle: saline 107 % of control

c1ccc2c(Cc3c4ccccc4cc4ccccc34)c3ccccc3cc2c1
inactive: [8] 94 % of control | [9] 97 % of control | [10] 90 % of control

Cc1ccc(C(=O)C=Nc2ccccc2[N+](=O)[O-])cc1
inactive: dose: 12.5 mg/kg/injection, schedule: Q04DX002 (ip), vehicle: Klucel (hydroxypropylcellulose) (HPC) 105 % of control | [8] 108 % of control | [9] 123 % of control

O=C(N/N=C/c1ccccc1O)N/N=C/c1ccccc1O
inactive: dose: 50.0 mg/kg/injection, schedule: Q04DX003 (ip), vehicle: Klucel (hydroxypropylcellulose) (HPC) 96 % of control | [6] 90 % of control | [7] 88 % of control

Cc1cccc(NC(=O)c2ccccc2)n1
inactive: dose: 100.0 mg/kg/injection, schedule: Q04DX003 (ip), vehicle: saline with Tween-80 97 % of control | dose: 200.0 mg/kg/injection, schedule: Q04DX003 (ip), vehicle: saline with Tween-80 95 % of control | dose: 400.0 mg/kg/injection, schedule: Q04DX003 (ip), vehicle: saline with Tween-80 92 % of control

N#Cc1ccc([N+](=O)[O-])cc1O
inactive: dose: 50.0 mg/kg/injection, schedule: Q04DX003 (ip), vehicle: saline 96 % of control | [11] 98 % of control | dose: 100.0 mg/kg/injection, schedule: Q04DX003 (ip), vehicle: saline 95 % of control | dose: 200.0 mg/kg/injection, schedule: Q01DX001 (ip), vehicle: saline 104 % of control | dose: 200.0 mg/kg/injection, schedule: Q04DX003 (ip), vehicle: saline 96 % of control

[Cl][Sn]([CH2]c1ccccc1)([CH2]c1ccccc1)[CH2]c1ccccc1
inactive: dose: 0.39 mg/kg/injection, schedule: Q04DX002 (ip), vehicle: saline with Tween-80 94 % of control | dose: 0.78 mg/kg/injection, schedule: Q04DX002 (ip), vehicle: saline with Tween-80 106 % of control | dose: 1.56 mg/kg/injection, schedule: Q04DX002 (ip), vehicle: saline with Tween-80 108 % of control | dose: 3.13 mg/kg/injection, schedule: Q04DX002 (ip), vehicle: saline with Tween-80 108 % of control

Cc1ccc(/C=N\NC(=O)C(O)C(O)C(O)C(O)CO)cc1 (stereo not given)
inactive: [3] 91 % of control | [4] 91 % of control | [5] 109 % of control

Nc1ccc(N=Nc2ccccc2)cc1
inactive: [9] 105 % of control | [10] 105 % of control | dose: 200.0 mg/kg/injection, schedule: Q04DX002 (ip), vehicle: Klucel (hydroxypropylcellulose) (HPC) 97 % of control and 115 % of control | dose: 400.0 mg/kg/injection, schedule: Q04DX002 (ip), vehicle: Klucel (hydroxypropylcellulose) (HPC) 112 % of control

Nc1cc(Cl)c(O)c(Cl)c1
inactive: dose: 12.5 mg/kg/injection, schedule: Q01DX015 (ip), vehicle: saline 97 % of control | dose: 25.0 mg/kg/injection, schedule: Q01DX001 (ip), vehicle: saline with Tween-80 93 % of control | dose: 25.0 mg/kg/injection, schedule: Q01DX015 (ip), vehicle: saline 100 % of control | dose: 50.0 mg/kg/injection, schedule: Q01DX001 (ip), vehicle: saline with Tween-80 92 % of control | dose: 50.0 mg/kg/injection, schedule: Q01DX015 (ip), vehicle: saline 97 % of control | dose: 100.0 mg/kg/injection, schedule: Q01DX001 (ip), vehicle: carboxymethylcellulose (CMC) 93 % of control | [11] 93 % of control | dose: 100.0 mg/kg/injection, schedule: Q01DX015 (ip), vehicle: saline 91 % of control

COc1ccc(C2=CC(c3ccccc3)C(c3ccccc3)C(=O)N2)cc1 (stereo not given)
inactive: dose: 6.25 mg/kg/injection, schedule: Q04DX002 (ip), vehicle: saline with Tween-80 100 % of control | dose: 12.5 mg/kg/injection, schedule: Q04DX002 (ip), vehicle: saline with Tween-80 100 % of control | dose: 25.0 mg/kg/injection, schedule: Q04DX002 (ip), vehicle: saline with Tween-80 92 % of control
